Laboratory results published in patent US20060160086A1, “Method for continuous detection of an analyte, trifunctional detecting reagent used and detecting device” (Commissariat A L'Energie Atomique, priority 2002, published 2006).
Ends that are not written are not given here. * marks the point of attachment. Biotin = O=C1N[C@H]2[C@H](CS[C@H]2CCCCC(=O)*)N1

Columns and labels:
[1] = test system: monoclonal antibody SP31; settings: peptide analog of substance P comprising an alanine at position 10 [Ala^10]; cited from earlier work
[2] = target: T1, neutravidin (Gallus gallus, UniProt P02701); test: Attachment of the fluorescein-labeled tripod Y to neutravidin-coated microtitration plates (fluorescence); format: binding; settings: neutravidin-coated microplate, 3 hours at ambient temperature, excitation 485 nm / emission 530 nm
T1 construct: purchased Pierce 31 000
Experimental: 100 μl of a solution of neutravidin (sold under the reference 31 000 by the company Pierce) at 5 μg/ml in a 0.1 M potassium phosphate buffer, pH 7.4 are deposited into the wells of black microplates sold under the name High Bind Matrix by the company VWR (reference 80120696). After 16 hours at ambient temperature, the plates are washed with washing buffer and then saturated by depositing 300 μl/well of saturation buffer for 16 hours at ambient temperature. The plates are stored with the same buffer (300 μl/well) at 4° C.
A dilution range for the tripod Y (labeled with fluorescein) synthesized above in example 4, in 0.1 M potassium phosphate buffer, pH 7.4, is prepared by producing a first point of the range at a concentration of 0.5 μM, and then 4 successive ⅓ dilutions (i.e. 0.167 μM; 0.055 μM; 0.0185 μM and 6.2×10^−3 μM). […] The plate is read with an analyst AD system fluorimeter (LJL Biosystem) for reading microplates, at an excitation wavelength of 485 nm and at an emission wavelength of 530 nm, which are the excitation and emission wavelengths corresponding to fluorescein.
The curves obtained with neutravidin (black square) and without neutravidin (black triangle: control) are represented in the attached FIG. 2, in which the fluorescence (in arbitrary units) is expressed as a function of the concentration of tripod Y in accordance with the invention (μM).

T1 sequence (P02701 25-152): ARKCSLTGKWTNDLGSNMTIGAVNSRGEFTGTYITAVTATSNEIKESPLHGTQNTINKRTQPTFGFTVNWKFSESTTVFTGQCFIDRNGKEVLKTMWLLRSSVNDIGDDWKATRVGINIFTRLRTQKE

Substance	cross reactivity with substance P for the monoclonal antibody SP31 [1] [%]	concentration of tripod up to which fluorescence increases proportionally, then plateau (saturation of the neutravidin binding sites) [2] [µM]
KSSK(Biotin)RPAPQQFFGAM-NH2 [substance P analog]	13	–
tripod: substance P analog (SEQ ID No. 2) labeled with fluorescein; biotin for attachment to neutravidin support (GATCTGCTGGCATCT; fluorescein label and biotin, positions not given here)	–	0.17
